Source: patent publication US5516768A, “Uncompetitive inhibition of steroid and 5α-reductose” (priority 1990, dated 1996)

What was measured:
[1] = tested on: involuted ventral prostate; assay: testosterone induced regrowth of the involuted ventral prostate of castrated male rats; assay type: in vivo, rat; settings: castrated + testosterone implant, 10 days, N = 5 rats/group
Description: Certain combinations of the invention were tested for their in vivo potency in inhibiting steroid 5-α-reductase activity.
(§1) When male rats are castrated and allowed to go untreated for 1 month, the ventral prostates involutes to approximately 10% of its original total cell number. If exogeneous testosterone is given to these castrated rats to restore the physiological serum level of testosterone, the involuted ventral prostate rapidly proliferates restoring its original cell content within 2-3 weeks. Using the ability to inhibit this testosterone induced regrowth of the rat ventral prostate, the efficacy and potency of twice daily oral administering of the "competitive" inhibitor and the "uncompetitive" inhibitor individually and in combination were compared.
(§2) To perform these experiments, a total of 50 male Sprague Dawley rats (From Harlan Sprague-Dawley, Inc.) of 250-300 gm starting weight were used. Forty-five of these animals were castrated and allowed to go untreated for 1 month to produce maximal ventral prostatic and seminal vesicle involution. After this 1 month period, 40 of the 45 castrated animals were implanted subcutaneously in the flank with a 2.5 cm long testosterone filled silastic capsule. The 50 animals were set up in 10 groups as follows:
(§3) The animals were administered the 5-α-reductase inhibiting compounds twice a day (BID) for 10 consecutive days. This test compound was dissolved in propylene glycol and diluted in normal saline. At the end of the treatment period blood was collected from the animals and then they were sacrificed, the ventral prostrates were excised and weighed, and DHT levels were measured by the following procedure.
Prostate tissue was excised, trimmed, weighed, minced and washed with phosphate buffer. The tissue then was homogenized in phosphate buffer and extracted by addition of ethyl acetate and mixing on an orbital mixer for forty-five minutes. The ethyl acetate was evaporated, the residue was reconstituted in ethanol, and was centrifuge filtered using […] filter paper. The components then were separated using reverse-phase HPLC collecting the DHT fraction. The fraction was reduced to dryness and reconstituted in standard commercial DHT assay buffer. DHT levels then were measured using standard techniques such as radioimmunoassay.

[2] = tested on: seminal vesicle; assay: testosterone induced regrowth of the involuted seminal vesicle of castrated male rats; assay type: in vivo, rat; settings: castrated + testosterone implant, 10 days, N = 5 rats/group
Source text: as §1, §2, §3

[3] = tested on: steroid 5-α-reductase; assay: kinetic mechanism of inhibition versus testosterone (competitive / uncompetitive); assay type: biochemical; settings: competitive = binds E-NADPH; uncompetitive = binds E-NADP+
Source text: Dead-end inhibitors of bisubstrate enzymes which follow ordered kinetic mechanisms can associate to one or more existing enzyme species. With steroid 5-α-reductase, enzyme forms to which such a steroidal-inhibitor might bind would include free enzyme, E, and enzyme binary complexes with cofactor, E-NADPH and E-NADP^+.
The response of the velocity of enzyme catalysis with varying concentrations of testosterone in the presence of an inhibitor that binds to the E-NADPH complex can be described by equation 1; this model is denoted as competitive inhibition versus the variable substrate, in this case testosterone.
v=VM A/[Ka (1+I/Kis)+A] (1)
v=VM A/[Ka +A(1+K/Kii)] (2)
The results of these analyses are typically expressed in double reciprocal plots: 1/velocity versus 1/[testosterone].

[4] = tested on: involuted ventral prostate; settings: Stoner, et al. (1987) Endocrinology 120:774; cited from earlier work

CC(C)(C)NC(=O)[C@H]1CC[C@H]2[C@@H]3CC[C@H]4NC(=O)C=C[C@]4(C)[C@H]3CC[C@]12C [compound A, N-t-butyl-5-α-androst-1-ene-4-aza-17β-carboxamide-3-one]
Ventral Prostate DNA (μg/gland) ([1]; BID 12.5 mg/kg oral): 289 ± 17 μg/gland | Ventral Prostate weight (mg/gland) ([1]; BID 12.5 mg/kg oral): 71 ± 11 mg/gland | Ventral Prostate DNA (μg/gland) ([1]; BID 25 mg/kg oral): 290 ± 25 μg/gland | Ventral Prostate weight (mg/gland) ([1]; BID 25 mg/kg oral): 55 ± 7 mg/gland | Ventral Prostate DNA (μg/gland) ([1]; BID 50 mg/kg oral): 284 ± 19 μg/gland | Ventral Prostate weight (mg/gland) ([1]; BID 50 mg/kg oral): 62 ± 7 mg/gland | Seminal Vesicle DNA (μg/gland) ([2]; BID 12.5 mg/kg oral): 692 ± 51 μg/gland | Seminal Vesicle weight (mg/gland) ([2]; BID 12.5 mg/kg oral): 118 ± 5 mg/gland | Seminal Vesicle DNA (μg/gland) ([2]; BID 25 mg/kg oral): 708 ± 72 μg/gland | Seminal Vesicle weight (mg/gland) ([2]; BID 25 mg/kg oral): 108 ± 10 mg/gland | Seminal Vesicle DNA (μg/gland) ([2]; BID 50 mg/kg oral): 698 ± 39 μg/gland | Seminal Vesicle weight (mg/gland) ([2]; BID 50 mg/kg oral): 108 ± 7 mg/gland | mechanism of inhibition versus testosterone [3]: competitive inhibitor | plateau dose-response effect on prostate weight reported in other studies [4]: plateau dose-response effect

CC(C)N(C(=O)[C@H]1CC[C@H]2[C@@H]3CC=C4C=C(C(=O)O)CC[C@]4(C)[C@H]3CC[C@]12C)C(C)C [compound B, N,N-diisopropyl-androst-3,5-diene-17β-carboxamide-3-carboxylic acid]
mechanism of inhibition versus testosterone [3]: uncompetitive inhibitor

CC(C)(C)NC(=O)[C@H]1CC[C@H]2[C@@H]3CC=C4C=C(C(=O)O)CC[C@]4(C)[C@H]3CC[C@]12C [compound C, N-t-butyl-androst-3,5-diene-17β-carboxamide-3-carboxylic acid]
Ventral Prostate DNA (μg/gland) ([1]; BID 12.5 mg/kg oral): 359 ± 36 μg/gland | Ventral Prostate weight (mg/gland) ([1]; BID 12.5 mg/kg oral): 154 ± 22 mg/gland | Ventral Prostate DNA (μg/gland) ([1]; BID 25 mg/kg oral): 383 ± 29 μg/gland | Ventral Prostate weight (mg/gland) ([1]; BID 25 mg/kg oral): 143 ± 17 mg/gland | Ventral Prostate DNA (μg/gland) ([1]; BID 50 mg/kg oral): 316 ± 52 μg/gland | Ventral Prostate weight (mg/gland) ([1]; BID 50 mg/kg oral): 147 ± 15 mg/gland | Seminal Vesicle DNA (μg/gland) ([2]; BID 12.5 mg/kg oral): 851 ± 47 μg/gland | Seminal Vesicle weight (mg/gland) ([2]; BID 12.5 mg/kg oral): 158 ± 15 mg/gland | Seminal Vesicle DNA (μg/gland) ([2]; BID 25 mg/kg oral): 890 ± 58 μg/gland | Seminal Vesicle weight (mg/gland) ([2]; BID 25 mg/kg oral): 170 ± 19 mg/gland | Seminal Vesicle DNA (μg/gland) ([2]; BID 50 mg/kg oral): 855 ± 63 μg/gland | Seminal Vesicle weight (mg/gland) ([2]; BID 50 mg/kg oral): 159 ± 20 mg/gland | mechanism of inhibition versus testosterone [3]: uncompetitive inhibitor
